Measured values taken from publication PMC12033163, “Tumor-specific biochemical nanoconversion of self-assembled peptide-conjugated paclitaxel-docetaxel-based nanoparticles” (Nano Convergence, 2025).
pIC50: −log10 of the molar value. Peptide text beside a SMILES is read from it.

How the values were obtained:
Hep G2 cells = test: In vitro cytotoxicity assay (EZ-Cytox); type: cell-based; conditions: Hep G2, 48 h; for cell viability at 500 µM / cell viability at 500 µM in 3% DMSO solution: relative to untreated group; for cell viability at 500 µM: n = 5-6, mean ± S.D.; for cell viability at 500 µM in 3% DMSO solution: n = 6
Protocol: The cytotoxicity of (Ac)FRRF, de-Boc-DTX, (Ac)FRRF-DTX NPs, PTXm and PTX were evaluated using the EZ-Cytox assay on Hep G2 cell. Hep G2 was cultured in a 96-well plate at concentrations of 5.0 × 10^3 cells/well and 1.0 × 10^4 cells/well, respectively, under conditions of 37℃ and 5% CO2 for 1 h. Subsequently, cells were cultured for 48 h with concentrations ranging from 0.1 to 500 µM of each drug. Cell viability (n = 5 − 6) was measured at 450 and 600 nm absorbance using the EZ-Cytox cell viability assay kit (Daeil Lab Service, Republic of Korea) and a microplate reader (SPECTROstar Nano spectrophotometer, BMG Labtech, Germany). Cell viability was calculated by comparing the absorbance values of the measured samples with those of the control group. Additionally, to more accurately confirm the cytotoxicity of DTX and PTX with low solubility in aqueous media for Hep G2 cell, both of drug were dissolved in a 3% DMSO solution and cultured for 48 h at concentrations ranging from 0.1 to 500 µM. Cell viability was determined using the same method.

[1] = Morphology / nanoparticle formation by TEM and SEM; type: physicochemical
[2] = molecular target: T1, Cathepsin B from bovine spleen (Bos taurus, UniProt P07688); test: Cathepsin B cleavage assay (RP-HPLC, LC-MS); type: in vitro ADME; conditions: 50 µM, 25 mM MES buffer, 37℃, RP-HPLC 245 nm
T1 construct: Cathepsin B from bovine spleen; purchased Sigma-Aldrich; host or cells: bovine spleen (tissue-derived enzyme)
From the text: Antibiotic antimycotic solution (100X), Bio TrackerTM 488 Green Microtubule Cytoskeleton Dye, Cathepsin B from bovine spleen, Dimethyl sulfoxide (DMSO), Dulbecco’s modified Eagle’s medium (DMEM), 1-ethyl-3-(3-dimethylaminopropyl) carbodiimide (EDCI), dichloromethane (DCM), ether, phosphate-buffered saline (PBS), rhodamine B isothiocyanate (RITC), 2-(4-amidi-nophenyl)-6-indolecarbamidine dihydrochloride (DAPI), Tetramethylsilane (TMS), Dimethyl sulfoxide-d6 (DMSO-d6) were purchased from Sigma-Aldrich (St. Louis, MO, USA). Paraformaldehyde solution 4% in PBS (PFA), PierceTM BCA Protein Assay Kit were obtained from Thermo Fisher Scientific (Waltham, MA, USA). EZ-Cytox kit was purchased from DoGenBio (Seoul, Republic of Korea). Fetal bovine serum (FBS), 0.5% Trypsin-EDTA (10X) were obtained from Gibico (Waltham, MA, USA). Neutral buffered formalin (10%) was purchased from HuBenTech (Damyang, Republic of Korea).
The cathepsin B-specific cleavage of (Ac)FRRF-DTX was analyzed using reverse-phase high-performance liquid chromatography (RP-HPLC), and the molecular weight of PTXm was determined by liquid chromatography-mass spectrometry (LC-MS). […] The cleavage profile of (Ac)FRRF-DTX NPs was analyzed at 245 nm using reversed-phase high-performance liquid chromatography (RP-HPLC) under solvent gradient conditions (from 90:10 H2O/acetonitrile to 10:90 H2O/acetonitrile over 40 min). […]

Solubility assessment = conditions: for appearance of solution in 3% DMSO: 0.3 mg/mL in water (DW) with 3% DMSO; for appearance of solution in 3% DMSO / appearance of solution in 10% DMSO: visual images; for appearance of solution in 10% DMSO: 0.3 mg/mL in water with 10% DMSO
Protocol: The images aimed to observe how well these compounds dissolved in the solution. Additionally, an experiment was carried out to precisely determine the aqueous solubility values of (Ac)FRRF-DTX nanoparticles. […] […] Moreover, complementary experiments were performed to obtain accurate quantitative solubility values for (Ac)FRRF-DTX NPs.

[3] = In vivo blood toxicity assessment (hematology); conditions: normal mice, i.v.; PTX 1.5 mg/kg, NPs 3 mg/kg; blood after 7 days, n = 5
Protocol: Hematological analysis of red blood cell (RBC) and white blood cell (WBC) parameters in mice treated with (Ac)FRRF-DTX was performed through clinical pathological examinations. Normal saline (control group), de-Boc-DTX (1.5 mg/kg), PTX (1.5 mg/kg), and (Ac)FRRF-DTX NPs (3 mg/kg) were dissolved in 200 µL of normal saline and administered daily via tail vein. After 7 days, blood was drawn from the mice’s heart and collected in tubes containing EDTA to prevent coagulation. Subsequently, whole blood samples were stored for analysis. Level of RBC-related parameters (RBC, HGB, HCT, MCV, MHC, MCHC) and WBC-related parameters (WBC, PLT, NEU, LYM, MONO, EOS) were measured using a hematology analyzer (Sysmex XN series, Sysmex, Japan) (n = 5).

[4] = tested on: microtubules in Hep G2 cells; test: In vitro microtubule staining (BioTracker 488 Green Microtubule Cytoskeleton Dye); type: cell-based; conditions: Hep G2, 100 µM, 24 h, versus well-organized control
Protocol: To assess the cell death induced by PTX, PTXm, and (Ac)FRRF-DTX NPs in Hep G2 cells, an evaluation was conducted using the nucleic green reagent, and the results were visualized through imaging. Hep G2 cells cultured in high-glucose DMEM medium, maintain in a sample chamber with appropriate humidity, and kept at 37℃ with 5% CO2. The cells were cultured in 35 mm fluorescent cell culture dishes (SPL Life Science, Republic of Korea) at a concentration of 4 × 10^4 for 3 h. Subsequently, DTX, PTX, and (Ac)FRRF-DTX NPs were all treated at a concentration of 100 µM (in DMSO 2%) for 24 h. After sample treatment, cells were washed five times with DPBS solution, and in a light-protected environment, the medium was replaced with a mixture of microtubule reagent (Bio Tracker™ 488 Green Microtubule Cytoskeleton Dye, Sigma-Aldrich, MO, USA) in fresh medium at RT for 30 min. Following this, the medium was replaced with new DMEM containing 10% FBS, and images were captured using ECLIPSE Ti2 Series (Nikon, Japan) with a FITC filter and quantified using ImageJ (U.S. National Institutes of Health).

[5] = mouse, in vivo
Hep G2 tumors = test: In vivo antitumor test (Hep G2 xenograft); design: species or system BALB/c nude mice; conditions: for average tumor weight after 17 days / tumor size after 17 days: i.v. at 3 day intervals, PTX, de-Boc-DTX 5 mg/kg, NPs 10 mg/kg; for average tumor weight after 17 days: control 595.28 ± 282.98; for tumor size after 17 days: control 2161.12 ± 946.71; for TUNEL staining fluorescence intensity of tumor tissue: tumors after 17 days, ImageJ, relative to control group, n = 3
Protocol: All animal experiments were conducted in accordance with the standard regulations of the Konkuk University Animal Experimentation Ethics Committee (Ref: no. KU220748-1). Hep G2 cells at a concentration of 1.0 × 10^7 cells/100 µL were subcutaneously inoculated into the dorsal region at 6-week-old male BALB/c nude mice (Orient Bio, Seongnam, Republic of Korea). After […], when the tumor volume reached approximately 50 − 100 mm^3 (calculated as the maximum diameter × minimum diameter^2 × 0.52), the mice were divided into four groups. Mice with tumors were intravenously administered saline, de-Boc-DTX (5 mg/kg), PTX (5 mg/kg), or (Ac)FRRF-DTX NPs (10 mg/kg; based on 5 mg/kg of de-Boc-DTX) at 3 days intervals for a total of 17 days. The body weight and tumor volume of the treated mice were measured every other day using a digital caliper (ASIMETO, Mooresville, NC, USA). After 17 days of treatment, tumors were fixed with diluted 10% neutral pH formalin (HuBen Tech, Republic of Korea). Tumor tissues were stained with TUNEL, Ki-67, and H&E. Sections of tumor tissues stained with Ki-67 and H&E were observed using the OS-33DPM multimedia video microscope (OSUN HITECH, Republic of Korea). Additionally, tumor tissues stained with TUNEL were sliced for histological observation using an ECLIPSE Ti2 inverted microscope (Nikon, Japan), and FITC fluorescence intensity was quantified using ImageJ (U.S. National Institutes of Health) (n = 3).

SMILES	cell viability at 500 µM (Hep G2 cells; without DMSO)	morphology / nanoparticle formation [1]	cell viability at 500 µM in 3% DMSO solution (Hep G2 cells)	appearance of solution in 3% DMSO (Solubility assessment)	appearance of solution in 10% DMSO (Solubility assessment)	appearance of microtubule structures [4]	histological toxicity in major organs (heart, liver, spleen, lungs, kidney) [5]	average tumor weight after 17 days (Hep G2 tumors; n = 5-7)	tumor size after 17 days (Hep G2 tumors; n = 5-7)	TUNEL staining fluorescence intensity of tumor tissue (Hep G2 tumors)	other results
CC(=O)N[C@@H](Cc1ccccc1)C(=O)N[C@@H](CCCNC(=N)N)C(=O)N[C@@H](CCCNC(=N)N)C(=O)N[C@@H](Cc1ccccc1)C(=O)O [(Ac)FRRF, acetylated Phe-Arg-Arg-Phe peptide] (Ac-FRRF-OH)	84.1 ± 6.6%	absence of nanoparticle formation	–	–	–	–	–	–	–	–	–
CC(=O)N[C@@H](Cc1ccccc1)C(=O)N[C@@H](CCCNC(=N)N)C(=O)N[C@@H](CCCNC(=N)N)C(=O)N[C@@H](Cc1ccccc1)C(=O)N[C@@H](c1ccccc1)[C@@H](O)C(=O)O[C@H]1C[C@@]2(O)[C@@H](OC(=O)c3ccccc3)[C@@H]3[C@]4(OC(C)=O)CO[C@@H]4C[C@H](O)[C@@]3(C)C(=O)[C@H](O)C(=C1C)C2(C)C [(Ac)FRRF-DTX, Acetylated Phenylalanine-Arginine-Arginine-Phenylalanine Docetaxel]	–	–	–	–	–	–	–	–	–	–	change of (Ac)FRRF-DTX in the absence of cathepsin B ([2]; 0-72 h, no cathepsin B): remained unchanged; nanoconversion of (Ac)FRRF-DTX to PTXm at 48 h ([2]; cathepsin B 50 µg/mL, 48 h): complete nanoconversion; solubility in water (Solubility assessment; water without DMSO): 1.3 mg/20 µL
CC(=O)O[C@@]12CO[C@@H]1C[C@H](O)[C@@]1(C)C(=O)[C@H](O)C3=C(C)[C@@H](OC(=O)[C@H](O)[C@@H](NC(=O)OC(C)(C)C)c4ccccc4)C[C@@](O)([C@@H](OC(=O)c4ccccc4)[C@H]21)C3(C)C [DTX, Docetaxel]	57.9 ± 8.9%	–	24.9 ± 4.6%	opaque or precipitated	clear	–	–	–	–	–	–
CC(=O)O[C@H]1C(=O)[C@@]2(C)[C@H]([C@H](OC(=O)c3ccccc3)[C@]3(O)C[C@H](OC(=O)[C@H](O)[C@@H](NC(=O)c4ccccc4)c4ccccc4)C(C)=C1C3(C)C)[C@]1(OC(C)=O)CO[C@@H]1C[C@@H]2O [PTX, paclitaxel]	55.5 ± 4.9%	–	27.4 ± 4.5%	opaque or precipitated	clear	indistinct	no significant toxicity	293.97 ± 164.22 mg	1029.79 ± 752.19 mm^3	183.71 ± 2.32%	white blood cell parameters (NEU, LYM, EOS concentrations) [3]: alterations in NEU, LYM and EOS concentrations; body weight change (Hep G2 tumors; 17 days treatment, n = 5-7): no significant changes in body weight
CC(=O)O[C@@]12CO[C@@H]1C[C@H](O)[C@@]1(C)C(=O)[C@H](O)C3=C(C)[C@@H](OC(=O)[C@H](O)[C@@H](NC(=O)[C@@H](N)Cc4ccccc4)c4ccccc4)C[C@@](O)([C@@H](OC(=O)c4ccccc4)[C@H]21)C3(C)C [PTXm]	40.9 ± 10.9%	–	–	–	–	indistinct	–	–	–	–	pIC50 (Hep G2 cells; tested 0.1-500 µM, without DMSO): 3.67
CC(=O)O[C@@]12CO[C@@H]1C[C@H](O)[C@@]1(C)C(=O)[C@H](O)C3=C(C)[C@@H](OC(=O)[C@H](O)[C@@H](N)c4ccccc4)C[C@@](O)([C@@H](OC(=O)c4ccccc4)[C@H]21)C3(C)C [de-Boc-DTX]	75.3 ± 5.4%	absence of nanoparticle formation	–	–	–	–	no significant toxicity	265.94 ± 298.69 mg	1262.19 ± 1209.27 mm^3	196.50 ± 4.25%	–
